One assay deals with Sestrin2. On the set-up: method as in PMID 30858438, PMID 30990795. The conditions noted are these: cited from earlier work.
The subject of assay [1] is mTORC1. Also noted: method as in PMID 30858438, PMID 30990795. The conditions noted are these: cited from earlier work.
The subject of the next assay is medial prefrontal cortex. Also noted: method as in PMID 30990795. The conditions noted are these: cited from earlier work.
Assay [2] concerns mTORC1. Kind of assay: mTORC1 activation (pS6K1 immunoblot) in leucine-starved HEK293T cells. The format is cell-based. As to conditions: HEK293T cells starved of leucine 50 minutes, treatment 10 minutes. Here is the method: (§1) All cell lines were cultured in DMEM (Corning, #MT10013CV) supplemented with 10% heat-inactivated FBS (Gibco, #16140–071). All cell lines were maintained at 37°C and 5% CO2. For amino acid starvation, cells were rinsed once with and incubated Amino acid-free RPMI (US Biologicals, #R8999-04A) supplemented with 10% dialyzed FBS (Gibco, #26400044) for 50 min followed by treatment with NV-5297, leucine, or vehicle for 10 minutes. For leucine starvation, cells were rinsed once with and incubated in leucine-free DMEM (AthenaES, #0420) supplemented with 10% dialyzed FBS (Gibco, #26400044) for 50 minuted followed by treatment with NV-5297, leucine, or vehicle for 10 minutes.
(A) Activation of the mTORC1 pathway by NV-5297. […] (B) NV-5297 disrupts Sestrin2/GATOR2 in the in vitro Sesn2/WDR24 protein-protein interaction assay in a dose-dependent manner. […] Representative immunoblots of ^T389pS6K1 and quantification of the normalized level of ^T389pS6K1 from 8 independent experiments (F) show TORC1 activity in unedited HEK-293T cells, HEK-293T cells deficient for Sestrin 1 (Sesn1), 2 (Sesn2) and 3 (Sesn3) (D) or HEK-293T cells deficient for the GATOR1 component Nprl3 (E) after 50 minutes leucine starvation followed by the addition of vehicle, NV-5297 or leucine for 10 minutes. […]
(In general: A western blot detects proteins with antibodies after separation by electrophoresis.)

In assay [3] the target is T1, Sestrin2/GATOR2 interaction (Homo sapiens, UniProt P58004).
T1 construct: endogenous in cells; host or cells: Flag-WDR24 293T (HEK293T) cells
T1 sequence (P58004 1-480): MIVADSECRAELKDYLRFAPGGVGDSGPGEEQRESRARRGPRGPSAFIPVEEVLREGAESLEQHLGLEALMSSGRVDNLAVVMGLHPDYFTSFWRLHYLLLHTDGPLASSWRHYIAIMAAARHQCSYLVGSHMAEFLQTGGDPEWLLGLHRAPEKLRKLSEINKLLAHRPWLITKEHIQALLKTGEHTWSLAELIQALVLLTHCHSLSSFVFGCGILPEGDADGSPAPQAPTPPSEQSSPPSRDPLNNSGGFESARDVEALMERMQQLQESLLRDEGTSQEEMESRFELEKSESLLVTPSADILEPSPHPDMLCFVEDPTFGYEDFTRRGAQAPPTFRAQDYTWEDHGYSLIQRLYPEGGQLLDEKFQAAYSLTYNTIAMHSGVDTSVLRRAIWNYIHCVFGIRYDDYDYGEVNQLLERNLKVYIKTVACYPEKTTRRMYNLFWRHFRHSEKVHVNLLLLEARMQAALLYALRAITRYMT
Kind of assay: Intact cells-based Sestrin2/GATOR2 protein-protein interaction assay, Flag-WDR24 293T cells. The format is cell-based. As to conditions: leucine-starved flag-WDR24 HEK-293T cells, 10 minutes, S1C Fig. Here is the method:
Flag-WDR24 293T cells were washed and placed in leucine-free DMEM supplemented 10% dFBS for 50 minutes followed by treatment with NV-5297, leucine or vehicle for 10 minutes. Cells were rinsed once with ice-cold PBS and immediately lysed with Triton lysis buffer (1% Triton, 10 mM β-glycerol phosphate, 10 mM pyrophosphate, 40 mM Hepes pH 7.4, 2.5 mM MgCl2 and 1 tablet of EDTA-free protease inhibitor). The cell lysates were cleared by centrifugation at 13,200 rpm at 4°C in a microcentrifuge for 10 minutes. Prior to immunoprecipitations, an aliquot of lysate was taken for SDS-PAGE and immunoblotting for pS6K1, S6K1 and tubulin. For anti-FLAG immunoprecipitations, the FLAG-M2 affinity gel was washed 3 times with Triton lysis buffer, and 30 μl of a 50/50 slurry of the FLAG-M2 affinity gel was then added to approximately 2 mg of clarified cell lysates and incubated with rotation for 3 hours at 4°C. Following immunoprecipitation, the beads were washed one time with Triton wash buffer containing 500 mM NaCl. Immunoprecipitated proteins were denatured, resolved by SDS-PAGE, and analyzed by immunoblotting.
Next, Sestrin2/GATOR2 protein-protein interactions in response to NV-5297 were measured using cell-free assays and in vitro. For this, HEK293T cells stably expressing flag-WDR24, a component of GATOR2 [44], were used. The cell-free assays utilized Sestrin2/GATOR2 complexes immunoprecipitated from amino acid-starved cells with an anti-flag antibody.

A further assay has as its system SesnTKO HEK293T cells. Kind of assay: mTORC1 activation (p70S6K1) in HEK293T cells null for all three Sestrin isoforms. The format is cell-based. The conditions noted are these: leucine-starved 50 minutes, treatment 10 minutes. Here is the method:
as §1
(§2) To ascertain if Sestrins and the GATOR pathway are required for NV-5297 activity, we tested mTORC1 activation in cells null for either all three Sestrin isoforms [SesnTKO] or for the GATOR1 component Npr13 [Npr13KO] [44]. […]
(§3) (A) Activation of the mTORC1 pathway by NV-5297. […] Representative immunoblots of ^T389pS6K1 and quantification of the normalized level of ^T389pS6K1 from 8 independent experiments (F) show TORC1 activity in unedited HEK-293T cells, HEK-293T cells deficient for Sestrin 1 (Sesn1), 2 (Sesn2) and 3 (Sesn3) (D) or HEK-293T cells deficient for the GATOR1 component Nprl3 (E) after 50 minutes leucine starvation followed by the addition of vehicle, NV-5297 or leucine for 10 minutes. […]

Another assay has as its system Npr13KO HEK293T cells. The assay is described as follows: mTORC1 activation (p70S6K1) in HEK293T cells null for GATOR1 component Nprl3. The conditions noted are these: leucine-starved 50 minutes, treatment 10 minutes. The format is cell-based. As to the method:
as §1, §2, §3

Results on two molecules are retold here after paper PMC9423655, “Huntington’s disease phenotypes are improved via mTORC1 modulation by small molecule therapy” (PLoS ONE, 2022).

Structures are written as SMILES.

`CC(C)(C[C@H](N)C(=O)O)C(F)F` [NV-5138]: in the assay on Sestrin2, the Sestrin2 binding entry is reported as “binds Sestrin2”. In the assay on mTORC1 [1], the “mTORC1 activation in peripheral tissues and CNS” value is recorded as “transiently activates mTORC1”. Further, the “synaptic formation in the medial prefrontal cortex” value in the assay on medial prefrontal cortex is recorded as “improved synaptic formation”.

For `CC(C)C[C@H](N)C(=O)O` [leucine, reference compound], the “mTORC1 activation measured by phosphorylated S6K1 (pS6K1 / p70S6K1)” value in the assay on mTORC1 [2] is “activates mTORC1 in leucine-starved HEK293T cells in a dose-dependent manner”. In assay [3], the “p70S6K1 (T389 pS6K1) level” value was “Dose-dependent activation of mTORC1”. In addition, the p70S6K1 levels entry with SesnTKO HEK293T cells and with Npr13KO HEK293T cells was “remained unchanged” each time.
